The target in this assay is T1, human PAH with the R408W mutation (Homo sapiens, UniProt P00439, R408W).
T1 construct: expressed in transfected cells
T1 sequence (P00439 1-452 R408W): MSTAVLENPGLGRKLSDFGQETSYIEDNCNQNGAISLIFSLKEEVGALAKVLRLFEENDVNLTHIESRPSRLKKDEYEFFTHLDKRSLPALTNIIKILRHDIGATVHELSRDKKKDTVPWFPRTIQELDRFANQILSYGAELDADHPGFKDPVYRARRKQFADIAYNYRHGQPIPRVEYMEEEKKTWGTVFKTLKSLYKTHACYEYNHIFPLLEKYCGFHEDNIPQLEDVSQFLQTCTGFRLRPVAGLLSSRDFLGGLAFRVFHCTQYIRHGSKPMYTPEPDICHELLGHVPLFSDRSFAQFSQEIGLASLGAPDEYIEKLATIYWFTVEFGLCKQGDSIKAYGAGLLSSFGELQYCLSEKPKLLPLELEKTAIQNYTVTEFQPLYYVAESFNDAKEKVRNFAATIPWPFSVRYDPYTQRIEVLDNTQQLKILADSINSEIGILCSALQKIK
Briefly: Cell Based Phenylalanine Flux Assay. The note with it: A375 cells expressing human R408W PAH; 24 hrs compound incubation; 13C-Tyrosine by LC-MS; average where tested multiple times; read-out: AC50.

A word on the AC50: it is the concentration giving half of the maximal activity seen.

`Cc1nc(C(C)(C)C)oc1C(=O)N1CCc2[nH]cnc2[C@@H]1c1nc2c(F)cccc2s1` [Example 1434, (R)-(2-(tert-butyl)-4-methyloxazol-5-yl)(4-(4-fluorobenzo[d]thiazol-2-yl)-6,7-dihydro-1H-imidazo[4,5-c]pyridin-5(4H)-yl)methanone]: the AC50 fell in the range of 1 to 5 µM.
Take `CC(C)(O)c1ncc(C(=O)N2CCc3[nH]cnc3[C@H]2c2nc3ccccc3s2)s1` [Example 1435]: the AC50 was under 0.5 µM.
As for `CC(C)(O)c1ncc(C(=O)N2CCc3[nH]cnc3[C@@H]2c2nc3ccccc3s2)s1` [Example 1436, (R)-(4-(benzo[d]thiazol-2-yl)-6,7-dihydro-1H-imidazo[4,5-c]pyridin-5(4H)-yl)(2-(2-hydroxypropan-2-yl)thiazol-5-yl)methanone], the half-maximal activity concentration (AC50) was in the range of 1 to 5 µM.
`c1cnc(N2CCc3[nH]cnc3[C@@H]2c2nc3ccccc3s2)nc1` [Example 1437, (R)-2-(5-(pyrimidin-2-yl)-4,5,6,7-tetrahydro-1H-imidazo[4,5-c]pyridin-4-yl)benzo[d]thiazole]: the concentration at half-maximal activity (AC50) was 1 to 5 µM.
As for `c1cnc(N2CCc3[nH]cnc3[C@H]2c2nc3ccccc3s2)nc1` [Example 1438], the half-maximal activity concentration (AC50) was under 0.5 µM.
Turning to `O=C(c1nnc(-c2ccccn2)o1)N1CCc2[nH]cnc2[C@H]1c1nc2ccccc2s1` [Example 1439], the AC50 was under 0.5 µM.
In the case of `O=C(c1nnc(-c2ccccn2)o1)N1CCc2[nH]cnc2[C@@H]1c1nc2ccccc2s1` [Example 1440, (R)-(4-(benzo[d]thiazol-2-yl)-6,7-dihydro-1H-imidazo[4,5-c]pyridin-5(4H)-yl)(5-(pyridin-2-yl)-1,3,4-oxadiazol-2-yl)methanone] it was 1 to 5 µM; in that of `O=C(c1ocnc1-c1ccccc1)N1CCc2[nH]cnc2[C@@H]1c1nc2ccccc2s1` [Example 1441, (R)-(4-(benzo[d]thiazol-2-yl)-6,7-dihydro-1H-imidazo[4,5-c]pyridin-5(4H)-yl)(4-phenyloxazol-5-yl)methanone], over 5 µM; in that of `O=C(c1ocnc1-c1ccccc1)N1CCc2[nH]cnc2[C@H]1c1nc2ccccc2s1` [Example 1442], 0.5 to 1 µM.
For `O=C(c1nnc(C2CC2)o1)N1CCc2[nH]cnc2[C@H]1c1nc2c(F)cccc2s1` [Example 1443], the concentration at half-maximal activity (AC50) was under 0.5 µM.
Take `O=C(c1nnc(C2CC2)o1)N1CCc2[nH]cnc2[C@@H]1c1nc2c(F)cccc2s1` [Example 1444, (R)-(5-cyclopropyl-1,3,4-oxadiazol-2-yl)(4-(4-fluorobenzo[d]thiazol-2-yl)-6,7-dihydro-1H-imidazo[4,5-c]pyridin-5(4H)-yl)methanone]: the concentration at half-maximal activity (AC50) lay within 1 to 5 µM.
In the case of `Cc1nc(-c2ccccn2)oc1C(=O)N1CCc2[nH]cnc2[C@H]1c1nc2c(F)cccc2s1` [Example 1445, (S)-(4-(4-fluorobenzo[d]thiazol-2-yl)-6,7-dihydro-1H-imidazo[4,5-c]pyridin-5(4H)-yl)(4-methyl-2-(pyridin-2-yl)oxazol-5-yl)methanone], the AC50 was under 0.5 µM.
Consider `Cc1nc(-c2ccccn2)oc1C(=O)N1CCc2[nH]cnc2[C@@H]1c1nc2c(F)cccc2s1` [Example 1446, (R)-(4-(4-fluorobenzo[d]thiazol-2-yl)-6,7-dihydro-1H-imidazo[4,5-c]pyridin-5(4H)-yl)(4-methyl-2-(pyridin-2-yl)oxazol-5-yl)methanone], for which the AC50 was over 5 µM.
As for `CC(C)(O)c1ncc(C(=O)N2CCc3[nH]cnc3[C@@H]2c2nc3ccccc3s2)o1` [Example 1447, (R)-(4-(benzo[d]thiazol-2-yl)-6,7-dihydro-1H-imidazo[4,5-c]pyridin-5(4H)-yl)(2-(2-hydroxypropan-2-yl)oxazol-5-yl)methanone], the AC50 was in the range of 1 to 5 µM.
In the case of `CC(C)(O)c1ncc(C(=O)N2CCc3[nH]cnc3[C@H]2c2nc3ccccc3s2)o1` [Example 1448] it was 0.5 to 1 µM; in that of `O=C(c1ocnc1-c1ccccn1)N1CCc2[nH]cnc2[C@@H]1c1nc2ccccc2s1` [Example 1449, (R)-(4-(benzo[d]thiazol-2-yl)-6,7-dihydro-1H-imidazo[4,5-c]pyridin-5(4H)-yl)(4-(pyridin-2-yl)oxazol-5-yl)methanone], over 5 µM; in that of `O=C(c1ocnc1-c1ccccn1)N1CCc2[nH]cnc2[C@H]1c1nc2ccccc2s1` [Example 1450], 0.5 to 1 µM.
On to `COCCc1ccc2c(C(=O)N3CCc4[nH]cnc4[C@H]3c3nc4ccccc4s3)cnn2c1` [Example 1451], for which the AC50 was under 0.5 µM.
As to `COCCc1ccc2c(C(=O)N3CCc4[nH]cnc4[C@@H]3c3nc4ccccc4s3)cnn2c1` [Example 1452, (R)-(4-(benzo[d]thiazol-2-yl)-6,7-dihydro-1H-imidazo[4,5-c]pyridin-5(4H)-yl)(6-(2-methoxyethyl)pyrazolo[1,5-a]pyridin-3-yl)methanone], the half-maximal activity concentration (AC50) was over 5 µM.
With `CN(C)CCc1ccc2c(C(=O)N3CCc4[nH]cnc4[C@H]3c3nc4ccccc4s3)cnn2c1` [Example 1453], the half-maximal activity concentration (AC50) is under 0.5 µM.
`CN(C)CCc1ccc2c(C(=O)N3CCc4[nH]cnc4[C@@H]3c3nc4ccccc4s3)cnn2c1` [Example 1454, (R)-(4-(benzo[d]thiazol-2-yl)-6,7-dihydro-1H-imidazo[4,5-c]pyridin-5(4H)-yl)(6-(2-(dimethylamino)ethyl)pyrazolo[1,5-a]pyridin-3-yl)methanone]: the concentration at half-maximal activity (AC50) is over 5 µM.
For the compound `CC(C)(F)c1ncc(C(=O)N2CCc3[nH]cnc3[C@H]2c2nc3ccccc3s2)o1` [Example 1455], the AC50 is under 0.5 µM.
For `CC(C)(F)c1ncc(C(=O)N2CCc3[nH]cnc3[C@@H]2c2nc3ccccc3s2)o1` [Example 1456, (R)-(4-(benzo[d]thiazol-2-yl)-6,7-dihydro-1H-imidazo[4,5-c]pyridin-5(4H)-yl)(2-(2-fluoropropan-2-yl)oxazol-5-yl)methanone], the AC50 fell in the range of 1 to 5 µM.
Consider `Cc1cnc(CC(=O)N2CCc3[nH]cnc3[C@H]2c2nc3ccccc3s2)s1` [Example 1457], for which the AC50 is 1 to 5 µM.
As to `Cc1cnc(CC(=O)N2CCc3[nH]cnc3[C@@H]2c2nc3ccccc3s2)s1` [Example 1458, (R)-1-(4-(benzo[d]thiazol-2-yl)-6,7-dihydro-1H-imidazo[4,5-c]pyridin-5(4H)-yl)-2-(5-methylthiazol-2-yl)ethanone], the AC50 was 1 to 5 µM.
As for `O=C(Cc1ncc(C2CC2)s1)N1CCc2[nH]cnc2[C@H]1c1nc2ccccc2s1` [Example 1459], the AC50 is 0.5 to 1 µM.
In the case of `O=C(Cc1ncc(C2CC2)s1)N1CCc2[nH]cnc2[C@@H]1c1nc2ccccc2s1` [Example 1460, (R)-1-(4-(benzo[d]thiazol-2-yl)-6,7-dihydro-1H-imidazo[4,5-c]pyridin-5(4H)-yl)-2-(5-cyclopropylthiazol-2-yl)ethanone] it was 1 to 5 µM; in that of `Cn1cc(-c2nnc(C(=O)N3CCc4[nH]cnc4[C@@H]3c3nc4ccccc4s3)o2)cn1` [Example 1461, (R)-(4-(benzo[d]thiazol-2-yl)-6,7-dihydro-1H-imidazo[4,5-c]pyridin-5(4H)-yl)(5-(1-methyl-1H-pyrazol-4-yl)-1,3,4-oxadiazol-2-yl)methanone], 1 to 5 µM.
In the case of `Cn1cc(-c2nnc(C(=O)N3CCc4[nH]cnc4[C@H]3c3nc4ccccc4s3)o2)cn1` [Example 1462] it was 1 to 5 µM.
Turning to `CC(C)(F)c1ncc(C(=O)N2CCc3[nH]cnc3[C@H]2c2nc3ccccc3s2)s1` [Example 1463], the AC50 is under 0.5 µM.
As to `CC(C)(F)c1ncc(C(=O)N2CCc3[nH]cnc3[C@@H]2c2nc3ccccc3s2)s1` [Example 1464, (R)-(4-(benzo[d]thiazol-2-yl)-6,7-dihydro-1H-imidazo[4,5-c]pyridin-5(4H)-yl)(2-(2-fluoropropan-2-yl)thiazol-5-yl)methanone], the AC50 fell in the range of 1 to 5 µM.
On to `Cc1nnc(C(=O)N2CCc3[nH]cnc3[C@H]2c2nc3c(F)cccc3s2)o1` [Example 1465, (S)-(4-(4-fluorobenzo[d]thiazol-2-yl)-6,7-dihydro-1H-imidazo[4,5-c]pyridin-5(4H)-yl)(5-methyl-1,3,4-oxadiazol-2-yl)methanone], for which the AC50 is 0.5 to 1 µM.
As to `Cc1nnc(C(=O)N2CCc3[nH]cnc3[C@@H]2c2nc3c(F)cccc3s2)o1` [Example 1466, (R)-(4-(4-fluorobenzo[d]thiazol-2-yl)-6,7-dihydro-1H-imidazo[4,5-c]pyridin-5(4H)-yl)(5-methyl-1,3,4-oxadiazol-2-yl)methanone], the AC50 is 1 to 5 µM.
Take `Cc1nc(C(C)(C)O)oc1C(=O)N1CCc2[nH]cnc2[C@H]1c1nc2ccccc2s1` [Example 1469]: the AC50 is under 0.5 µM.
In the case of `Cc1nc(C(C)(C)O)oc1C(=O)N1CCc2[nH]cnc2[C@@H]1c1nc2ccccc2s1` [Example 1470, (R)-(4-(benzo[d]thiazol-2-yl)-6,7-dihydro-1H-imidazo[4,5-c]pyridin-5(4H)-yl)(2-(2-hydroxypropan-2-yl)-4-methyloxazol-5-yl)methanone] it was over 5 µM; in that of `Cc1nc(C(C)(C)O)oc1C(=O)N1CCc2[nH]cnc2[C@H]1c1nc2c(F)cccc2s1` [Example 1471, (S)-(4-(4-fluorobenzo[d]thiazol-2-yl)-6,7-dihydro-1H-imidazo[4,5-c]pyridin-5(4H)-yl)(2-(2-hydroxypropan-2-yl)-4-methyloxazol-5-yl)methanone], under 0.5 µM; in that of `Cc1nc(C(C)(C)O)oc1C(=O)N1CCc2[nH]cnc2[C@@H]1c1nc2c(F)cccc2s1` [Example 1472, (R)-(4-(4-fluorobenzo[d]thiazol-2-yl)-6,7-dihydro-1H-imidazo[4,5-c]pyridin-5(4H)-yl)(2-(2-hydroxypropan-2-yl)-4-methyloxazol-5-yl)methanone], 1 to 5 µM.

(Values after patent publication US20250171438A1 (Agios Pharmaceuticals, Inc., priority 2022, published 2025).)
